Patent US11541107B2, “Peptides and T cells for use in immunotherapeutic treatment of various cancers” (Immatics Biotechnologies GmbH, priority 2015, dated 2023)

Assays:
CD8+ T cells = experiment: In vitro T-cell priming assay (aAPCs loaded with peptide/MHC and anti-CD28, pMHC multimer readout; HLA-A*02 and HLA-A*24); format: cell-based, human; conditions: in vitro immunogenicity of HLA class I peptides; for Wells positive [%]: peptide-specific T cells by pMHC multimer staining
Description: In order to obtain information regarding the immunogenicity of the TUMAPs of the present invention, the inventors performed investigations using an in vitro T-cell priming assay based on repeated stimulations of CD8+ T cells with artificial antigen presenting cells (aAPCs) loaded with peptide/MHC complexes and anti-CD28 antibody.
In order to perform in vitro stimulations by artificial antigen presenting cells loaded with peptide-MHC complex (pMHC) and anti-CD28 antibody, the inventors first isolated CD8+ T cells from fresh HLA-A*02 leukapheresis products via positive selection using CD8 microbeads (Miltenyi Biotec, Bergisch-Gladbach, Germany) of healthy donors obtained from the University clinics Mannheim, Germany, after informed consent.
PBMCs and isolated CD8+ lymphocytes were incubated in T-cell medium (TCM) until use consisting of RPMI-Glutamax (Invitrogen, Karlsruhe, Germany) supplemented with 10% heat inactivated human AB serum (PAN-Biotech, Aidenbach, Germany), 100 U/ml Penicillin/100 μg/ml Streptomycin (Cambrex, Cologne, Germany), 1 mM sodium pyruvate (CC Pro, Oberdorla, Germany), 20 μg/ml Gentamycin (Cambrex). 2.5 ng/ml IL-7 (PromoCell, Heidelberg, Germany) and 10 U/ml IL-2 (Novartis Pharma, Nürnberg, Germany) were also added to the TCM at this step.
Generation of pMHC/anti-CD28 coated beads, T-cell stimulations and readout was performed in a highly defined in vitro system using four different pMHC molecules per stimulation condition and 8 different pMHC molecules per readout condition.
The purified co-stimulatory mouse IgG2a anti human CD28 Ab 9.3 (Jung et al., 1987) was chemically biotinylated using Sulfo-N-hydroxysuccinimidobiotin as recommended by the manufacturer (Perbio, Bonn, Germany). Beads used were 5.6 μm diameter streptavidin coated polystyrene particles (Bangs Laboratories, Illinois, USA).
pMHC used for positive and negative control stimulations were A*0201/MLA-001 (peptide […] (SEQ ID NO. 418) from modified Melan-A/MART-1) and A*0201/DDX5-001 ([…] from DDX5, SEQ ID NO. 419), respectively.
800.000 beads/200 μl were coated in 96-well plates in the presence of 4×12.5 ng different biotin-pMHC, washed and 600 ng biotin anti-CD28 were added subsequently in a volume of 200 μl. Stimulations were initiated in 96-well plates by co-incubating 1×10^6 CD8+ T cells with 2×10^5 washed coated beads in 200 μl TCM supplemented with 5 ng/ml IL-12 (PromoCell) for 3 days at 37° C. Half of the medium was then exchanged by fresh TCM supplemented with 80 U/ml IL-2 and incubating was continued for 4 days at 37° C. This stimulation cycle was performed for a total of three times. For the pMHC multimer readout using 8 different pMHC molecules per condition, a two-dimensional combinatorial coding approach was used as previously described (Andersen et al., 2012) with minor modifications encompassing coupling to 5 different fluorochromes. Finally, multimeric analyses were performed by staining the cells with Live/dead near IR dye (Invitrogen, Karlsruhe, Germany), CD8-FITC antibody clone SK1 (BD, Heidelberg, Germany) and fluorescent pMHC multimers. For analysis, a BD LSRII SORP cytometer equipped with appropriate lasers and filters was used. Peptide specific cells were calculated as percentage of total CD8+ cells. Evaluation of multimeric analysis was done using the FlowJo software (Tree Star, Oregon, USA). In vitro priming of specific multimer+CD8+ lymphocytes was detected by comparing to negative control stimulations.
Exemplary flow cytometry results after TUMAP-specific multimer staining for 2 peptides of the invention are shown in FIGS. 3A-3B together with corresponding negative controls. Results for 5 peptides from the invention are summarized in Table12A. Exemplary flow cytometry results after TUMAP-specific multimer staining for 7 peptides of the invention are shown in FIGS. 4A-4C and FIGS. 5A-5D together with corresponding negative controls.

HLA-A*24 = experiment: MHC binding assay, UV-ligand exchange with beta2m ELISA, HLA-A*24; parameters: species or system human; conditions: binding to HLA-A*24 ranged by peptide exchange yield (UV-ligand exchange, beta2m ELISA)
Method in brief: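 Peptide–MHC complexes made by UV-ligand exchange of a UV-cleavable peptide. Exchange yield measured by ELISA: monomers diluted 100-fold on streptavidin-coated plates, 1 h at 37°C, detected with HRP anti-β2m (2 ug/ml) and TMB, absorbance at 450 nm.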

HLA-A*02 = HLA-A*02 (Homo sapiens, UniProt P04439, D140Y/D185E/D98H/E176V/E277Q/G131W/G231S/I119V/I121R/I166T/I218V/L300P/N151K/N90K/P208A/P217A/Q86G/Q94H/R138H/R169H); experiment: MHC binding assay, UV-ligand exchange with beta2m ELISA, HLA-A*02; conditions: binding to HLA-A*02 ranged by peptide exchange yield (UV-ligand exchange, beta2m ELISA)
Description: Candidate peptides for T cell based therapies according to the present invention were further tested for their MHC binding capacity (affinity). The individual peptide-MHC complexes were produced by UV-ligand exchange, where a UV-sensitive peptide is cleaved upon UV-irradiation, and exchanged with the peptide of interest as analyzed. Only peptide candidates that can effectively bind and stabilize the peptide-receptive MHC molecules prevent dissociation of the MHC complexes. To determine the yield of the exchange reaction, an ELISA was performed based on the detection of the light chain (ß2 m) of stabilized MHC complexes. The assay was performed as generally described in Rodenko et al. (Rodenko et al., 2006).
96 well MAXISorp plates (NUNC) were coated over night with 2 ug/ml streptavidin in PBS at room temperature, washed 4× and blocked for 1 h at 37° C. in 2% BSA containing blocking buffer. […] Peptide-MHC monomers of the UV-exchange reaction were diluted 100 fold in blocking buffer. Samples were incubated for 1 h at 37° C., washed four times, incubated with 2 ug/ml HRP conjugated anti-β2 m for 1h at 37° C., washed again and detected with TMB solution that is stopped with […]. Absorption was measured at 450 nm. Candidate peptides that show a high exchange yield (preferably higher than 50%, most preferred higher than 75%) are generally preferred for a generation and production of antibodies or fragments thereof, and/or T cell receptors or fragments thereof, as they show sufficient avidity to the MHC molecules and prevent dissociation of the MHC complexes.

103 (NYIPVKNGKQF; listed as Homo sapiens) [compound 103]
Wells positive [%] (CD8+ T cells): + (<20% = +)
Peptide exchange (HLA-A*24): +++ (50%-75% = +++)

344 (EYNSDLHQF; listed as Homo sapiens) [compound 344]
Wells positive [%] (CD8+ T cells): + (<20% = +)
Peptide exchange (HLA-A*24): +++ (50%-75% = +++)

380 (VYTGIDHHW; listed as Homo sapiens) [compound 380]
Wells positive [%] (CD8+ T cells): + (<20% = +)
Peptide exchange (HLA-A*24): ++++ (>=75% = ++++)

181 (VYPPYLNYL; listed as Homo sapiens) [compound 181]
Wells positive [%] (CD8+ T cells): ++++ (>=70% = ++++)
Peptide exchange (HLA-A*24): +++ (50%-75% = +++)

190 (LYSELTETL; listed as Homo sapiens) [compound 190]
Wells positive [%] (CD8+ T cells): ++++ (>=70% = ++++)
Peptide exchange (HLA-A*24): +++ (50%-75% = +++)

137 (EYLHNCSYF; listed as Homo sapiens) [compound 137]
Wells positive [%] (CD8+ T cells): + (<20% = +)
Peptide exchange (HLA-A*24): ++++ (>=75% = ++++)

106 (IYNETVRDLL; listed as Homo sapiens) [compound 106]
Wells positive [%] (CD8+ T cells): + (<20% = +)
Peptide exchange (HLA-A*24): +++ (50%-75% = +++)

354 (VYNEQIRDLL; listed as Homo sapiens) [compound 354]
Wells positive [%] (CD8+ T cells): + (<20% = +)
Peptide exchange (HLA-A*24): +++ (50%-75% = +++)

111 (VYVQILQKL; listed as Homo sapiens) [compound 111]
Wells positive [%] (CD8+ T cells): + (<20% = +)
Peptide exchange (HLA-A*24): +++ (50%-75% = +++)

142 (VYVDDIYVI; listed as Homo sapiens) [compound 142]
Wells positive [%] (CD8+ T cells): ++++ (>=70% = ++++)
Peptide exchange (HLA-A*24): +++ (50%-75% = +++)

407 (VYGIRLEHF; listed as Homo sapiens) [compound 407]
wells (CD8+ T cells; share of positive wells after stimulation of CD8+ T cells of healthy donors): +++ (50%-69%= +++)

175 (LYSPVPFTL; listed as Homo sapiens) [compound 175]
Wells positive [%] (CD8+ T cells): + (<20% = +)
Peptide exchange (HLA-A*24): +++ (50%-75% = +++)

98 (VFPRLHNVLF; listed as Homo sapiens) [compound 98]
Wells positive [%] (CD8+ T cells): + (<20% = +)
Peptide exchange (HLA-A*24): +++ (50%-75% = +++)

353 (TYGKIDLGF; listed as Homo sapiens) [compound 353]
Wells positive [%] (CD8+ T cells): + (<20% = +)
Peptide exchange (HLA-A*24): +++ (50%-75% = +++)

162 (KYTSYILAF; listed as Homo sapiens) [compound 162]
Wells positive [%] (CD8+ T cells): + (<20% = +)
Peptide exchange (HLA-A*24): ++ (20%-49% = ++)

164 (HYVPATKVF; listed as Homo sapiens) [compound 164]
Wells positive [%] (CD8+ T cells): + (<20% = +)
Peptide exchange (HLA-A*24): +++ (50%-75% = +++)

104 (SYLTWHQQI; listed as Homo sapiens) [compound 104]
Wells positive [%] (CD8+ T cells): + (<20% = +)
Peptide exchange (HLA-A*24): ++++ (>=75% = ++++)

167 (RYGFYYVEF; listed as Homo sapiens) [compound 167]
Wells positive [%] (CD8+ T cells): ++++ (>=70% = ++++)
Peptide exchange (HLA-A*24): +++ (50%-75% = +++)

358 (YYSEVPVKL; listed as Homo sapiens) [compound 358]
Wells positive [%] (CD8+ T cells): ++++ (>=70% = ++++)
Peptide exchange (HLA-A*24): +++ (50%-75% = +++)

365 (VFIDHPVHL; listed as Homo sapiens) [compound 365]
Wells positive [%] (CD8+ T cells): + (<20% = +)
Peptide exchange (HLA-A*24): ++++ (>=75% = ++++)

157 (DYIPASGFALF; listed as Homo sapiens) [compound 157]
Wells positive [%] (CD8+ T cells): + (<20% = +)
Peptide exchange (HLA-A*24): +++ (50%-75% = +++)

172 (VFIFKGNEF; listed as Homo sapiens) [compound 172]
Wells positive [%] (CD8+ T cells): + (<20% = +)
Peptide exchange (HLA-A*24): ++++ (>=75% = ++++)

363 (SYAELGTTI; listed as Homo sapiens) [compound 363]
Wells positive [%] (CD8+ T cells): + (<20% = +)
Peptide exchange (HLA-A*24): ++ (20%-49% = ++)

186 (VFTTSSNIF; listed as Homo sapiens) [compound 186]
Wells positive [%] (CD8+ T cells): + (<20% = +)
Peptide exchange (HLA-A*24): ++++ (>=75% = ++++)

132 (RYPALFPVL; listed as Homo sapiens) [compound 132]
Wells positive [%] (CD8+ T cells): + (<20% = +)
Peptide exchange (HLA-A*24): ++++ (>=75% = ++++)

166 (FYTLPFHLI; listed as Homo sapiens) [compound 166]
Wells positive [%] (CD8+ T cells): ++++ (>=70% = ++++)
Peptide exchange (HLA-A*24): ++++ (>=75% = ++++)

158 (IYEETRGVLKVF; listed as Homo sapiens) [compound 158]
Wells positive [%] (CD8+ T cells): + (<20% = +)
Peptide exchange (HLA-A*24): +++ (50%-75% = +++)

156 (YYMELTKLLL; listed as Homo sapiens) [compound 156]
Wells positive [%] (CD8+ T cells): + (<20% = +)
Peptide exchange (HLA-A*24): ++++ (>=75% = ++++)

161 (KYPDIVQQF; listed as Homo sapiens) [compound 161]
Wells positive [%] (CD8+ T cells): + (<20% = +)
Peptide exchange (HLA-A*24): +++ (50%-75% = +++)

356 (NYMPGQLTI; listed as Homo sapiens) [compound 356]
Wells positive [%] (CD8+ T cells): + (<20% = +)
Peptide exchange (HLA-A*24): ++++ (>=75% = ++++)

96 (YYTQYSQTI; listed as Homo sapiens) [compound 96]
Wells positive [%] (CD8+ T cells): + (<20% = +)
Peptide exchange (HLA-A*24): ++++ (>=75% = ++++)

115 (RYLNKSFVL; listed as Homo sapiens) [compound 115]
Wells positive [%] (CD8+ T cells): + (<20% = +)
Peptide exchange (HLA-A*24): +++ (50%-75% = +++)

180 (KYLQVVGMF; listed as Homo sapiens) [compound 180]
Wells positive [%] (CD8+ T cells): + (<20% = +)
Peptide exchange (HLA-A*24): +++ (50%-75% = +++)

47 (GLYQAQVNL; listed as Homo sapiens) [compound 47]
Peptide exchange (HLA-A*02): +++ (50%-75% = +++)

55 (IASAIVNEL; listed as Homo sapiens) [compound 55]
Peptide exchange (HLA-A*02): ++ (20%-49% = ++)

31 (ALSDETKNNWEV; listed as Homo sapiens) [compound 31]
Peptide exchange (HLA-A*02): ++++ (>=75% = ++++)
